Experimental data taken from patent US20050004093A1, “Beta-lactamase inhibitor prodrug” (Pfizer Inc, priority 2003, published 2005).
Converted amounts (≈) assume the structure as drawn. Read-outs that look alike come from different tables or passages of the source.

Tests used:
[1] = tested on: Streptococcus pneumoniae (02J1046); assay: Gerbil otitis media model; format: in vivo; details: single agent, oral, t.i.d. for 2 days, bacterial clearance day 4 post-challenge
[2] = tested on: Streptococcus pneumoniae (02J1095); assay: Murine systemic infection model; format: in vivo; details: single agent, oral, b.i.d. for 1 day, mice, survival day 4 post-challenge
[3] = tested on: Staphylococcus aureus (01A0400); assay: Murine systemic infection model; format: in vivo; details: single agent, oral, b.i.d. for 1 day, mice, survival day 4 post-challenge
[4] = tested on: Moraxella catarrhalis (87A1115); assay: Murine systemic infection model; format: in vivo; details: single agent, oral, b.i.d. for 1 day, mice, survival day 4 post-challenge
[5] = tested on: clinical isolates of S. pneumoniae; assay: Susceptibility assay (NCCLS broth microdilution MIC), non-β-lactamase producing species; details: Streptococcus pneumoniae
[6] = tested on: Streptococcus pneumoniae (02J1095); assay: Murine pneumonia model; format: in vivo; details: single agent, oral, b.i.d. for 2 days, mice, survival day 10 post-challenge
[7] = tested on: Haemophilus influenzae (54A1218); assay: Gerbil otitis media model; format: in vivo; details: single agent, oral, t.i.d. for 2 days, bacterial clearance day 4 post-challenge
in vitro [8] = assay: in vitro
Procedure: (§1) The incubation consisted of 990 μl of plasma preincubated for 5 minutes at 37° C. in a 96-well heat block. The incubation was initiated with the addition of 10 gl of a 10 mM stock of compound in 100% methanol. Serial aliquots (100 μl) were removed and transferred to 200 μl of 75/25 acetonitrile/3% perchloric acid at 0, 1, 2, 5, 10, 20, 30, and 60 minutes. The samples were centrifuged, the supernatants transferred to injection vials, and 20 μl was injected onto the HPLC in-line with a LC/MS single quadropole mass spectrometer. The LC/MS system was run in the negative ion mode.

in vitro [9] = assay: in vitro; remark: listed apart in the source
Procedure: as §1

[10] = target: T1, BRO-2 β-lactamase, M. catarrhalis 87A1178 ATCC43617 (Moraxella catarrhalis, UniProt Q59514); assay: IC50 against β-lactamase in cell extract (colorimetric, chromogenic cephalosporin); format: biochemical; details: BRO-2, M. catarrhalis 87A1178 ATCC43617 cell extract
T1 sequence (Q59514 1-313 D293G): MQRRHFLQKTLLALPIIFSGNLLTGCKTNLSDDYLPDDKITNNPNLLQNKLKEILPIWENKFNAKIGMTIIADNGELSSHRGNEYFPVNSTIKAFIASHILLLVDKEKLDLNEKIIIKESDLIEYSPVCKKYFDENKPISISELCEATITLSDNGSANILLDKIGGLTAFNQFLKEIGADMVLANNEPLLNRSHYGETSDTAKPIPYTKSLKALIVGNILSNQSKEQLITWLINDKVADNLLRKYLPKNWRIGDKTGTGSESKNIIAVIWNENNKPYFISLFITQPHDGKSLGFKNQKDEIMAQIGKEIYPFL

in vitro [11] = assay: in vitro; remark: listed apart in the source
Procedure: as §1

[12] = target: T2, BRO-1 β-lactamase, M. catarrhalis 87A1115 (Moraxella catarrhalis, UniProt Q59514); assay: biochemical
T2 sequence (Q59514 26-313): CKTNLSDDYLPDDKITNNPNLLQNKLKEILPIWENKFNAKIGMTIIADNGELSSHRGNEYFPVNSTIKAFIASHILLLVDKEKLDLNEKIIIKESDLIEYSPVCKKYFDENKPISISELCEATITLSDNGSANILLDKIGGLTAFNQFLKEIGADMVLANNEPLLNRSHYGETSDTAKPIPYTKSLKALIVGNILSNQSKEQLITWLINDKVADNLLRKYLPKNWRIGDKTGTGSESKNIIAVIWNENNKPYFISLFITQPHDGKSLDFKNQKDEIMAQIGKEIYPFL

in vitro [13] = assay: in vitro; remark: listed apart in the source
Procedure: as §1

in vitro [14] = assay: in vitro; remark: listed apart in the source
Procedure: as §1

[15] = target: T3, Sme-I β-lactamase, Serratia S6 (Serratia marcescens, UniProt P52682); assay: biochemical
T3 sequence (P52682 28-294): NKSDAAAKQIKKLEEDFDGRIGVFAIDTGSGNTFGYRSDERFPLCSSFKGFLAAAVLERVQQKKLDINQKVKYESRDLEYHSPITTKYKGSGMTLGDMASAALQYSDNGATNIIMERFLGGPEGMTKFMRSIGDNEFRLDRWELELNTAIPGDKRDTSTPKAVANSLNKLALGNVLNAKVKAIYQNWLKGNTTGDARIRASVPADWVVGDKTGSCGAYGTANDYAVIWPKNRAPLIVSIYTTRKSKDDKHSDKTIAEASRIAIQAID
Excerpt: Biochemical activity against β-lactamases from other pathogens, including those associated with skin infections:

[16] = target: T4, ROB-1 β-lactamase, H. influenzae ATCC43334 (Haemophilus influenzae, UniProt P67918); assay: biochemical
T4 sequence (P67918 34-305): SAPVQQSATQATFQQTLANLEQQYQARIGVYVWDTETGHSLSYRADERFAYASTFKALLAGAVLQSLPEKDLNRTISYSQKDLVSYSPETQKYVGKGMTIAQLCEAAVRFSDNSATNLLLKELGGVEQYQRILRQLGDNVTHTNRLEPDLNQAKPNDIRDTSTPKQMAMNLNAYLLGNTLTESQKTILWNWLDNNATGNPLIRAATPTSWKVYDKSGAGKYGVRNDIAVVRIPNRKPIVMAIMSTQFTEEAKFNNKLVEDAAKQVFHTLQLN

esterases = assay: Hydrolysis in the presence of esterases; format: in vitro ADME
Excerpt: (§2) Based upon this correlation, the rat was used to predict human absorption. […] Thus, oral bioavailability assessments in rats should correlate well with the fraction absorbed in humans.

[17] = Hepatic extraction, human hepatocytes; format: in vitro ADME
Excerpt: as §2

[18] = administered orally, rodents, preclinical studies; cited from earlier work
[19] = Hepatic extraction, rat hepatocytes; format: in vitro ADME
Excerpt: as §2

For `CC1(C)S[C@@H]2[C@H](NC(=O)[C@H](N)c3ccc(O)cc3)C(=O)N2[C@H]1C(=O)O` [Amoxicillin, amoxicillin], the ED50 [1] was over 50 mg/kg, the ED50 [2] was under 100 mg/kg and the ED50 [3] was over 200 mg/kg. It also gave an ED50 [4] of over 200 mg/kg, an MIC ([5]; read-out: Amoxicillin MICs, 12 penicillin-susceptible S. pneumoniae isolates) of 0.0156 to 0.06 µg/mL (≈ 0.0427 to 0.164 µM) and an MIC ([5]; read-out: Amoxicillin MICs, 21 penicillin-intermediate S. pneumoniae) of 0.03 to 1 µg/mL (≈ 0.0821 to 2.74 µM). It also gave an MIC50 ([5]; read-out: amoxicillin MIC50) of 2 µg/mL (≈ 5.47 µM), an MIC90 ([5]; read-out: amoxicillin MIC90) of 4 µg/mL (≈ 10.9 µM) and an ED50 [6] of under 100 mg/kg. It also gave an ED50 [7] of over 50 mg/kg.
Work on `O=C(O)[C@H]1/C(=C/CO)O[C@@H]2CC(=O)N21` [Clavulanate, lithium clavulanate] yielded a half-life at 100 μM (in vitro [8]; human, plasma) of 2.6 h, a half-life at 100 μM (in vitro [9]; monkey, plasma) of 3.6 h and an IC50 [10] of 110 nM. For the same molecule, the half-life at 100 μM (in vitro [11]; mouse, plasma) was over 4 h, the IC50 [12] was 140 nM and the half-life at 100 μM (in vitro [13]; rat, plasma) was 3.3 h. For the same molecule, the half-life at 100 μM (in vitro [14]; dog, plasma) was 2.8 h, the IC50 [15] was 19600 nM and the IC50 [16] was 40 nM.
In the case of `CC1(C)[C@H](C(=O)[O-])N2C(=O)[C@@H](CO)[C@H]2S1(=O)=O.[Na+]` [Na-HMPAS, 4-Thia-1-azabicyclo [3,2,0]heptane-2-carboxylic acid, 6-(hydroxymethyl)-3,3-dimethyl-7-oxo-,4,4-dioxide, monosodium salt, (2S,5R,6R)], the half-life at 100 μM (in vitro [8]) is reported as over 4 h, the half-life at 100 μM (in vitro [9]) is reported as over 4 h and the IC50 [10] is reported as 320 nM. For the same molecule, the half-life at 100 μM (in vitro [11]) was 3.9 h, the IC50 [12] was 143 nM and the half-life at 100 μM (in vitro [13]) was 3.4 h. For the same molecule, the half-life at 100 μM (in vitro [14]) was over 4 h, the IC50 [15] was 680 nM and the IC50 [16] was 10 nM.
Work on `CC1(C)[C@H](C(=O)OCOC(=O)OC2CCOCC2)N2C(=O)[C@@H](CO)[C@H]2S1(=O)=O` [Prodrug 1, 4-Thia-1-azabicyclo[3.2.0]heptane-2-carboxylic acid, 6-(hydroxymethyl)-3,3-dimethyl-7-oxo-,[[[(tetrahydro-2H-pyran-4-yl)oxy]carbonyl]oxy]methyl ester, 4,4-dioxide (2S,5R,6R)] yielded a half-life at 100 μM (in vitro [8]; human, plasma) of 0.112 h, an ED50 [2] of over 25 mg/kg and an ED50 [3] of over 25 mg/kg. For the same molecule, the half-life at 100 μM (in vitro [11]; mouse, plasma) was under 0.0333 h, the ED50 [4] was over 25 mg/kg and the half-life at 100 μM (in vitro [13]; rat, plasma) was under 0.0333 h. The time to hydrolysis (esterases) was “within a few minutes”, the half-life at 100 μM (in vitro [14]; dog, plasma) was 0.167 h and the melting point was 136 °C. The ED50 [6] was over 25 mg/kg.
In the case of `CC1(C)C(C(=O)O)N2C(=O)C(CO)C2S1(=O)=O` (stereo not drawn) [Prodrug 6-β-HMPAS, 6-β-hydroxymethylpenicillanic acid sulfone], the hepatic extraction [17] is given as “minimal”, the oral absorption [18] is given as “very poorly absorbed” and the hepatic extraction [19] is given as “minimal”.
